Experimental data as given in patent publication US11959083B2, “Immunosuppression-reverting oligonucleotides inhibiting the expression of CD39” (Secarna Pharmaceuticals GmbH & Co. KG, priority 2016, dated 2024).

System: mCD39 mRNA
Assay: mCD39 mRNA knockdown efficacy screen in A20 cells (single dose, gymnotic delivery, QuantiGene Singleplex)
Format: cell-based, mouse
Conditions: 10 μM, three days, normalized to HPRT1

+C*+G*+T*T*T*A*G*G*C*T*A*T*G*T*A*+C*+T*+T (CGTTTAGGCTATGTACTT; chemistry not fully specified) [neg1, negative control antisense oligonucleotide not hybridizing with CD39, described in WO2014154843 A1, reference compound]
Relative mCD39 mRNA expression (compared to non-treated cells): 0.67
